# Reference: article PMC12300298, “Expanding the Antiviral Spectrum of Scorpion-Derived Peptides Against Toscana Virus and Schmallenberg Virus” (Pathogens, 2025)
# Like-named read-outs stand apart in the source and are kept apart here. No end group written: not given here.
# Assays:
# SBV [1] = conditions: 48 h
# BHK-21 cells = experiment: MTT cytotoxicity, BHK-21 cells; type: cell-based, hamster; conditions: 24 h peptide treatment, 3-200 µM, 37 °C, absorbance 570 nm, nonlinear regression, at least three independent experiments
# Method: (§1) BHK-21, U-87 MG, A-72, and CRFK cells were seeded in 96-well plates at an initial density of 2 × 10^4 cells per well and incubated for 24 h at 37 °C. Then, serial dilutions of peptides ranging from 3 to 200 µM were added to the cell monolayer and incubated for 24 h at 37 °C. Cytotoxicity was evaluated by adding 5 μL of methylthiazolyldiphenyl-tetrazolium bromide (MTT; cod. M2003, Sigma-Aldrich, St. Louis, MO, USA) to each well. After 4 h of incubation, the plate was emptied, and formazan crystals were solubilized with dimethyl sulfoxide (DMSO; 100%). Cell viability was calculated by measuring absorbance at 570 nm using a microplate reader. The negative control (CTRL−, toxicity control) consisted of cells treated with DMSO, while the positive control (CTRL+, viable cells) included untreated cells.
# (§2) All tests were performed in triplicate and expressed as mean ± standard deviation (SD). Graphs and statistical analysis were generated using GraphPad Prism version 9.5.1 for macOS (GraphPad Software, San Diego, CA, USA, www.graphpad.com, accessed on 5 February 2025). The 50% cytotoxic concentration (CC50) and the 50% inhibitory concentration (IC50) were calculated by nonlinear regression analysis based on dose–response curves generated from at least three independent experiments.
# SBV [2] = conditions: 1 h
# [3] = test system: BHK-21, A-72, CRFK, and U-87 MG cells; experiment: MTT cytotoxicity, statements for all tested cell lines; type: cell-based; conditions: 24 h, concentrations of 50 μM and below
# Method: as §1
# U-87 MG cells = experiment: MTT cytotoxicity, U-87 MG cells; type: cell-based, human; conditions: 24 h peptide treatment, 3-200 µM, 37 °C, absorbance 570 nm, nonlinear regression, at least three independent experiments
# Method: as §1, §2
# CRFK cells = experiment: MTT cytotoxicity, CRFK cells; type: cell-based, feline; conditions: 24 h peptide treatment, 3-200 µM, 37 °C, absorbance 570 nm, nonlinear regression, at least three independent experiments
# Method: as §1, §2
# A-72 cells = experiment: MTT cytotoxicity, A-72 cells; type: cell-based, canine; conditions: 24 h peptide treatment, 3-200 µM, 37 °C, absorbance 570 nm, nonlinear regression, at least three independent experiments
# Method: as §1, §2
# SBV [4] = conditions: 48 h; remark: listed apart in the source
# TOSV [5] = conditions: 24 h
# TOSV [6] = conditions: 24 h; remark: listed apart in the source
# TOSV [7] = conditions: 24 h; remark: listed apart in the source
substance,measurement,setting,value
GILGKLWEGFKSIV-NH2 [pantinin-1],IC50,SBV [1],6 µM
same,CC50,BHK-21 cells,136.6 µM
same,IC50,SBV [2],12.8 µM
same,Cytotoxicity at 50 μM and below,[3],neither pantinin-1 nor pantinin-2 induced any detectable cytotoxicity
same,CC50,U-87 MG cells,114.3 µM
same,CC50,CRFK cells,93.5 µM
same,CC50,A-72 cells,93.6 µM
same,IC50,SBV [4],5.8 µM
IFGAIWKGISSLL-NH2 [pantinin-2],CC50,BHK-21 cells,100.8 µM
same,IC50,TOSV [5],3 µM
same,IC50,SBV [2],4.8 µM
same,Cytotoxicity at 50 μM and below,[3],neither pantinin-1 nor pantinin-2 induced any detectable cytotoxicity
same,CC50,U-87 MG cells,82 µM
same,CC50,CRFK cells,82.2 µM
same,CC50,A-72 cells,90.7 µM
same,IC50,TOSV [6],3 µM
same,IC50,TOSV [7],3 µM
